Data from ChEMBL document CHEMBL1122068, “Species- or isozyme-specific enzyme inhibitors. 5. Differential effects of thymidine substituents on affinity for rat thymidine kinase isozymes” (J Med Chem, 1982).
pKi: −log10 of the molar value.

What was measured:
[1] = molecular target: T1, Thymidine kinase, cytosolic (Rattus norvegicus) (UniProt P27158); assay: (§1) Competitive inhibition against rat cytoplasmic thymidine kinase; parameters: concentration or dose not given beside the values; conditions: concentration not given here
T1 sequence (whole entry): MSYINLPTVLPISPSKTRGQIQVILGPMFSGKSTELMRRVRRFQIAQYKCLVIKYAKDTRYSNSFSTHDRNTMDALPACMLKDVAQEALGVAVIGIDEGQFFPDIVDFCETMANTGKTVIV

[2] = molecular target: T2, Thymidine kinase 2 (Rattus norvegicus) (UniProt D3ZGQ2); assay: Ability to inhibit rat mitochondrial thymidine kinase; parameters: concentration or dose not given beside the values; conditions: concentration not given here
T2 sequence (whole entry): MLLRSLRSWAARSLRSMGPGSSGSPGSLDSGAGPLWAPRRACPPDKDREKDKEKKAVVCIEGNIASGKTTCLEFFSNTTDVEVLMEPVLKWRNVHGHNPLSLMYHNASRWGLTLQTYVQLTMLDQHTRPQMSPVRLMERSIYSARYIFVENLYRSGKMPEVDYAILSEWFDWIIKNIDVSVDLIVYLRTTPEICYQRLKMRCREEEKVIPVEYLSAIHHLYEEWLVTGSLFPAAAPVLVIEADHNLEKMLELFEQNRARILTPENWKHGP

[3] = molecular target: T3, Thymidine kinase, cytosolic (Rattus norvegicus, UniProt P27158); assay: Competitive inhibition against rat cytoplasmic Thymidine kinase
T3 sequence (P27158 whole entry): T1 sequence (whole entry)

[4] = molecular target: T1, Thymidine kinase, cytosolic (Rattus norvegicus); assay: Affinity towards cytoplasmic Thymidine kinase relative ot TdR.
[5] = molecular target: T1, Thymidine kinase, cytosolic (Rattus norvegicus); assay: Ability to inhibit rat cytoplasmic Thymidine kinase; parameters: concentration or dose not given beside the values; conditions: concentration not given here
Thymidine kinase 2 = molecular target: T4, Thymidine kinase 2 (Rattus norvegicus, UniProt D3ZGQ2); assay: Competitive inhibition against rat mitochondrial thymidine kinase
T4 sequence (D3ZGQ2 whole entry): T2 sequence (whole entry)

Rattus norvegicus = species: Rattus norvegicus; assay: Differential affinity is the ratio between M-TK and C-TK
[6] = molecular target: T2, Thymidine kinase 2 (Rattus norvegicus); assay: Affinity towards mitochondrial thymidine kinase relative to TdR.
[7] = molecular target: T3, Thymidine kinase, cytosolic; assay: as §1
[8] = molecular target: T1, Thymidine kinase, cytosolic (Rattus norvegicus); assay: Affinity towards cytoplasmic thymidine kinase relative ot TdR; expressed as KM (TdR)/Ki
[9] = molecular target: T3, Thymidine kinase, cytosolic; assay: Affinity towards cytoplasmic Thymidine kinase relative ot TdR; expressed as KM (TdR)/Ki

| Structure (SMILES) | inhibition [2] [%] | pKi [3] | Relative affinity [4] | inhibition [5] [%] | pKi (Thymidine kinase 2) | Differential affinity (Rattus norvegicus) | Relative affinity [6] | other results |
| --- | --- | --- | --- | --- | --- | --- | --- | --- |
| CC[S+]([O-])CC1OC(n2cc(C)c(=O)[nH]c2=O)CC1O (stereo unspecified) | 7 | – | – | – | – | – | – | inhibition [1]: 4% |
| CCOC1N([C@H]2C[C@H](O)[C@@H](CO)O2)C(=O)NC(=O)C1(C)Br (stereo in doubt; 4b) [listing 1 of 2 here] | – | 5.70 | – | – | – | – | – | – |
| Cc1cn(C2CC(O)C(CSCCO)O2)c(=O)[nH]c1=O (stereo unspecified) | 22 | 3.09 | 0.002 | 49 | – | – | – | – |
| CCNCC1OC(n2cc(C)c(=O)[nH]c2=O)CC1O (stereo unspecified) | – | 4.40 | 0.04 | – | 2.84 | 0.14 | 0.0056 | – |
| CC1CN([C@H]2C[C@H](O)[C@@H](CO)O2)C(=O)NC1=O (stereo partly specified) | 83 | – | – | – | 4.11 | – | 0.1 | inhibition [1]: 53% |
| CCSC1CC(n2cc(C)c(=O)[nH]c2=O)OC1CO (stereo unspecified) | – | 4.62 | 0.067 | – | 4.21 | 1.9 | 0.13 | – |
| CO[C@H]1C[C@H](n2ccc(N)nc2=O)O[C@@H]1CO | 24 | – | – | – | – | – | – | inhibition [1]: 3% |
| CCO[C@H]1C[C@H](n2cc(C)c(=O)[nH]c2=O)O[C@@H]1CO | – | – | – | – | – | 3.2 | 0.14 | pKi [7]: 4.44; Relative affinity [8]: 0.044 |
| NCc1cn([C@H]2C[C@H](O)[C@@H](CO)O2)c(=O)[nH]c1=O | 3 | – | – | 30 | – | – | – | – |
| CCNc1ccn([C@H]2C[C@H](O)[C@@H](CO)O2)c(=O)n1 | 5 | – | – | 7 | – | – | – | – |
| Cn1c(=O)ccn([C@H]2C[C@H](O)[C@@H](CO)O2)c1=O | 4 | – | – | – | – | – | – | inhibition [1]: 62% |
| CCCCCCNCC1OC(n2cc(C)c(=O)[nH]c2=O)CC1O (stereo unspecified) | – | 4.46 | 0.046 | – | 3.02 | 0.18 | 0.0083 | – |
| Cc1cn([C@H]2CC[C@@H](CO)O2)c(=O)[nH]c1=O | – | 3.40 | 0.004 | – | 3.06 | 2.3 | 0.0091 | – |
| O=c1ccn([C@@H]2O[C@H](CO)[C@@H](O)[C@H]2O)c(=O)[nH]1 | 4 | – | – | 4 | – | – | – | – |
| CC(=O)NC1CC(n2cc(C)c(=O)[nH]c2=O)OC1CO (stereo unspecified) | – | – | – | – | – | < 4.8 | – | – |
| CCSCC1OC(n2cc(C)c(=O)[nH]c2=O)CC1O (stereo unspecified) | 22 | – | – | 11 | – | – | – | – |
| CSc1cn([C@H]2C[C@H](O)[C@@H](CO)O2)c(=O)[nH]c1=O | – | 4.30 | 0.032 | – | 3.60 | 1 | 0.032 | – |
| CCC(=O)O[C@H]1C[C@H](n2ccc(N)nc2=O)O[C@@H]1CO | 19 | – | – | – | – | – | – | inhibition [1]: 8% |
| Nc1nc(=O)n([C@H]2C[C@H](O)[C@@H](CO)O2)cc1I [IBACITABINE] | – | 1.94 | – | – | – | – | – | – |
| CCOC1N([C@H]2C[C@H](O)[C@@H](CO)O2)C(=O)NC(=O)C1(C)Br (stereo in doubt; 4b) [listing 2 of 2 here] | – | – | 0.8 | – | – | 0.91 | 0.73 | – |

| Structure (SMILES) | inhibition [2] [%] | pKi [3] | Relative affinity [4] | inhibition [5] [%] | pKi (Thymidine kinase 2) | Differential affinity (Rattus norvegicus) | Relative affinity [6] | other results |
| --- | --- | --- | --- | --- | --- | --- | --- | --- |
| Nc1ccn([C@@H]2O[C@H](CO)[C@@H](O)[C@H]2O)c(=O)n1 | 13 | – | – | 1 | – | – | – | – |
| CC(=O)Nc1cn([C@H]2C[C@H](O)[C@@H](CO)O2)c(=O)[nH]c1=O | 11 | – | – | 0 | – | – | – | – |
| Cc1cn([C@H]2C[C@H](O)[C@@H](CO)O2)c(=O)nc1N | – | 2.68 | 0.00076 | – | – | 7.9 | 0.006 | – |
| CCOC1N([C@H]2C[C@H](O)[C@@H](CO)O2)C(=O)NC(=O)C1(C)Br (stereo in doubt; 4c) [listing 1 of 2 here] | – | 5.41 | – | – | 4.96 | – | – | – |
| Cc1cn(C2CC(O)C(CSCCC(=O)O)O2)c(=O)[nH]c1=O (stereo unspecified) | 25 | – | – | 40 | – | – | – | – |
| Nc1ccn([C@H]2C[C@H](O)[C@@H](CO)O2)c(=O)n1 [DOXECITINE] | 58 | – | – | 7 | 3.49 | – | 0.025 | – |
| Cc1cn([C@H]2C[C@H](O)[C@@H](CO)O2)c(=O)n(Cc2ccccc2)c1=O | 10 | – | 0.05 | – | – | 0.04 | > 0.002 | pKi [7]: 3.49 |
| CCCCNCC1OC(n2cc(C)c(=O)[nH]c2=O)CC1O (stereo unspecified) | 53 | – | – | 95 | – | – | – | – |
| O=c1ccn([C@H]2C[C@H](O)[C@@H](CO)O2)c(=O)[nH]1 | 74 | – | – | 90 | – | – | – | – |
| C/C=C/c1cn([C@H]2C[C@H](O)[C@@H](CO)O2)c(=O)[nH]c1=O | – | 1.81 | – | – | – | – | – | – |
| Cc1cn([C@H]2C[C@H](OCc3ccccc3)[C@@H](CO)O2)c(=O)[nH]c1=O | – | – | 0.133 | – | 5.10 | 7.5 | 1 | pKi [7]: 4.92 |
| CC(=O)NCC1OC(n2cc(C)c(=O)[nH]c2=O)CC1O (stereo unspecified) | 19 | – | – | 20 | – | – | – | – |
| Cc1cn([C@H]2C[C@H](O)[C@@H](CO)O2)c(=O)n(C)c1=O | – | – | – | – | – | < 0.022 | – | – |
| Cc1cn([C@H]2C=C[C@@H](CO)O2)c(=O)[nH]c1=O [STAVUDINE] | – | – | – | – | 2.49 | 2.7 | – | – |
| Cc1cn([C@H]2C[C@H](O)[C@@H](CN)O2)c(=O)[nH]c1=O | – | 5.62 | 0.67 | – | 2.34 | 0.0025 | 0.0017 | – |
| CCCCCn1c(=O)c(C)cn([C@H]2C[C@H](O)[C@@H](CO)O2)c1=O | – | 4.44 | 0.044 | – | 2.96 | 0.17 | 0.0073 | – |
| Cc1cn([C@H]2C[C@H](N)[C@@H](CO)O2)c(=O)[nH]c1=O [3-AMINO- 3-DEOXYTHYMIDINE] | – | 3.42 | 0.0042 | – | 2.59 | 0.74 | 0.0031 | – |
| CCOC1N([C@H]2C[C@H](O)[C@@H](CO)O2)C(=O)NC(=O)C1(C)Br (stereo in doubt; 4c) [listing 2 of 2 here] | – | – | 0.41 | – | – | 1.8 | 0.73 | – |
| Cc1cn(C2CC(O)C(CSCCCC(=O)O)O2)c(=O)[nH]c1=O (stereo unspecified) | 36 | – | – | 48 | – | – | – | pKi [9]: 2.44 |
| Nc1cn([C@H]2C[C@H](O)[C@@H](CO)O2)c(=O)[nH]c1=O | – | 3.43 | 0.0043 | – | 4.14 | 26 | 0.11 | – |
